Measurements reported in patent US7632840B2, “Quinazoline compounds for the treatment of hyperproliferative disorders” (AstraZeneca AB, priority 2004, dated 2009).

What was measured:
EGFR tyrosine kinase = target: T1, EGFR tyrosine kinase (Homo sapiens, UniProt P00533); test: Protein tyrosine kinase phosphorylation assay, Test (a); format: biochemical; conditions: read-out: 1C50 (nM) Test (a) (Inhibition of EGFR tyrosine kinase protein phosphorylation)
T1 construct: Recombinant intracellular fragments of EGFR, erbB2 and erbB4; made in house; host or cells: baculovirus/Sf21 insect cells (cleared lysate used)
T1 sequence (P00533 669-1210 limits assumed): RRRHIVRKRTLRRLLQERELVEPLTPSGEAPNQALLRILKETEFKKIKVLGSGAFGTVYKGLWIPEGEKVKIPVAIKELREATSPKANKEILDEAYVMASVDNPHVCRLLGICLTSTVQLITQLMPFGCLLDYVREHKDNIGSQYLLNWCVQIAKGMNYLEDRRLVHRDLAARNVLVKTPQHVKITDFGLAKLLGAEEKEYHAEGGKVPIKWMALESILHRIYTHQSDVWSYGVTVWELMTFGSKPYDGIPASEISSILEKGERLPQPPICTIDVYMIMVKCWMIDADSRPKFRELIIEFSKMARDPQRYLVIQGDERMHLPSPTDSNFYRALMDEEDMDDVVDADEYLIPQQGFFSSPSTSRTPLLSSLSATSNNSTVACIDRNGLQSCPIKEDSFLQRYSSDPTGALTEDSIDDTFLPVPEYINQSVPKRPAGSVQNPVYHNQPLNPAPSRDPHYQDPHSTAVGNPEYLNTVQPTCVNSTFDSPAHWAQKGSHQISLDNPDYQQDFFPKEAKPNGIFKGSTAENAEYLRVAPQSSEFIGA
Protocol: Recombinant intracellular fragments of EGFR, erbB2 and erbB4 (accession numbers X00588, X03363 and L07868 respectively) were cloned and expressed in the baculovirus/Sf21 system. Lysates were prepared from these cells by treatment with ice-cold lysis buffer (20 mM N-2-hydroxyethylpiperizine-N′-2-ethanesulfonic acid (HEPES) pH7.5, 150 mM NaCl, 10% glycerol, 1% Triton X-100, 1.5 mM MgCl2, 1 mM ethylene glycol-bis(β-aminoethyl ether) N′,N′,N′,N′-tetraacetic acid (EGTA), plus protease inhibitors and then cleared by centrifugation.
Constitutive kinase activity of these recombinant proteins was determined by their ability to phosphorylate a synthetic peptide (made up of a random co-polymer of Glutamic Acid, Alanine and Tyrosine in the ratio of 6:3:1). […]
The immobilised phospho-peptide product of the reaction was detected by immunological methods. […] After further washing, HRP activity in each well of the plate was measured colorimetrically using 22′-Azino-di-[3-ethylbenzthiazoline sulfonate (6)] diammonium salt crystals (ABTS™ from Roche) as a substrate.
Kinase inhibition for a given compound was expressed as an IC50 value. […] The range of phosphorylation was calculated from the positive (vehicle plus ATP) and negative (vehicle minus ATP) control values.

KB cells = test: EGFR driven KB cell proliferation assay, Test (b); format: cell-based; conditions: Homo sapiens
Protocol: Following adhesion to the plate, the cells are treated with or without EGF (final concentration of 1 ng/ml) and with or without compound at a range of concentrations in dimethylsulfoxide (DMSO) (0.1% final) before incubation for 4 days. […] MTT solution was then tipped off, the plate gently tapped dry and the cells dissolved upon the addition of 100 μl of DMSO.
Absorbance of the solubilised cells was read at 540 nm using a Molecular Devices ThermoMax microplate reader. Inhibition of proliferation was expressed as an IC50 value. […] The range of proliferation was calculated from the positive (vehicle plus EGF) and negative (vehicle minus EGF) control values.

| Structure (SMILES) | IC50 (EGFR tyrosine kinase) [nM] | IC50 (KB cells) [nM] |
| --- | --- | --- |
| CNC(=O)C1(N(C)Cc2cc3c(Nc4cccc(Cl)c4F)ncnc3cc2OC)CCN(C)CC1 [Example 20, 4-[({4-[(3-chloro-2-fluorophenyl)amino]-7-methoxyquinazolin-6-yl}methyl)(methyl)amino]-N,1-dimethylpiperidine-4-carboxamide] | 17 | 36 |
| COc1cc2ncnc(Nc3cccc(Cl)c3F)c2cc1CN(C)C1(C(N)=O)CCN(S(C)(=O)=O)CC1 [Example 66, 4-[({4-[(3-chloro-2-fluorophenyl)amino]-7-methoxyquinazolin-6-yl}methyl)(methyl)amino]-1-(methylsulfonyl)piperidine-4-carboxamide] | – | 91 |
